Results from patent publication US20130252930A1 (BIOMARIN PHARMACEUTICAL INC., priority 2010, published 2013).
Where two headings read alike, the source gives them in different places.

Assays:
[1] = target: T1, Human C17,20-lyase (microsomal fraction from human testis) (Homo sapiens, UniProt P05093); assay: CYP17 enzymatic assay (% inhibition at 10 nM), version 2 (Biological Example 6); type: biochemical; conditions: method: tested at 100 nM; human testis microsome, radiometric
T1 construct: using microsomal fraction from human testis (Celsis Cat #S00110) as the enzyme source; tissue Celsis S00110; host or cells: human testis microsomal fraction
T1 sequence (P05093 1-508): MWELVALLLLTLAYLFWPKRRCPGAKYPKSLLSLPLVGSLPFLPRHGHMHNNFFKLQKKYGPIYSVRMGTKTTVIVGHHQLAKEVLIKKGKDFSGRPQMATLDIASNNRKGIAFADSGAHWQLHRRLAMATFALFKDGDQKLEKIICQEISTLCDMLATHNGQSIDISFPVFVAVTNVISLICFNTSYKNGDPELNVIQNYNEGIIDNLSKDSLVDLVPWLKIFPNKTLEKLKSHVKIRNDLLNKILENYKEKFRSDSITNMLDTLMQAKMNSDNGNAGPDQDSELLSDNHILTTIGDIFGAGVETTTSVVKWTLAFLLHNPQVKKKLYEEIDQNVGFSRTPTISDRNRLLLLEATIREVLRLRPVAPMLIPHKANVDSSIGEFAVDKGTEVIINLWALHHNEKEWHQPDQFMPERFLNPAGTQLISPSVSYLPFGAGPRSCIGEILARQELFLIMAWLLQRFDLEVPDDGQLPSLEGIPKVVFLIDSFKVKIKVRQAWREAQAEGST
Procedure: Human C17,20-lyase enzymatic assays were conducted in 200 μL volume in Eppendorf tubes, using microsomal fraction from human testis (Celsis Cat #S00110) as the enzyme source. Total protein concentration of the microsomal fraction is estimated to be 20 mg/ml. Prior to adding the microsomal fractions, reaction mixtures containing 50 mM NaPO4 buffer (pH 7.4), 1 mM MgCl2, 0.1 mM EDTA, 0.1 mM dithiothreitol, 0.5 mM NADPH, 4 μM 17α-hydroxypregnenolone, 1 μL of [21-^3H]-17α-hydroxypregnenolone (American Radiolabeled Chemicals, ART #1663, Specific activity=50-60 Ci/mmol), and the appropriate testing compounds were incubated for 5 minutes in a 37° C. shaking water bath (150 rpm). Following the 5-minute pre-incubation, 5 μL of human testis microsome was added to each of the reaction mixtures (except for the Negative Controls, which received 5 μL of H2O). After 30-minute incubation at 37° C. in shaking water bath (150 rpm), reactions were stopped by addition of 200 μL of cold chloroform and vigorous shaking for 30 minutes. Tubes were centrifuged at 1,500×g for 15 minutes at 4° C., and the aqueous phase was transferred to fresh Eppendorf tubes. Forty microliters (40 μL) of 8.5% charcoal (Sigma Cat #C6241) suspension was added to each tube, mixed well and incubated at 4° C. for 30 minutes. Tubes were centrifuged at 1,500×g for 15 minutes at 4° C., and 100 μL upper layer from each tube was transferred into each well of a 96-well isoplate (PerkinElmer Cat #6005040). Finally, 100 μL of Optiphase supermix scintillation fluid (PerkinElmer Cat #1200430) was added to each well, mixed by pippeting up and down 3 times. Radioactivity was measured with MicroBeta Trilux Counter using tritium program.
All testing compounds were dissolved and diluted in methanol. Two microliters (2 μL) of the properly diluted test compound was added to each reaction to reach the desired concentration. In Negative control (no enzyme activity) and Activity control (100% enzyme activity), 2 μL of methanol was added. Each data point was tested in duplicate. […]
For compounds of further interest, IC50 value was generated by measuring the inhibition rate at 5 concentrations and using Prism software under “non-linear regression analysis.”

[2] = Rat liver microsome stability assay (Biological Example 8a); conditions: liver microsomes, pH 7.4
Procedure: Each test compound (1.5 μM, 30 μL) was incubated with rat (BD Gentest, Cat No. 452501) or human (BD Gentest, Cat No. 452161) liver microsomes (0.75 mg/mL, 0.1 M potassium phosphate buffer, 1.0 mM EDTA, pH 7.4) in 96 well plates. The reaction was started with addition of excess NADPH (5 mg/mL, 15 μL in 0.1 M potassium phosphate buffer, 1.0 mM EDTA, pH 7.4), the total volume is 45 μL (compound final concentration was 1 μM). The incubations were terminated at time zero and at 5, 15, 30, and 60 minutes by addition of 135 μL/excess ACN containing internal standard (1S). After quenching, the reaction mixtures was centrifuged (Eppendorf Centrifuge 5810R) at 3220×g for 10 min (4° C.). 50 μL of the supernatant was transferred from each well into a 96-well sample plate containing 50 μL of ultra-pure water (Millipore) for LC-MS/MS analysis. The half-life T1/2=0.693/K (K is the rate constant from a plot of log [concentration] vs. incubation time) was calculated.

in vitro = conditions: human, microsomes, pH 7.4
Procedure: (§1) The reaction was started with addition of excess NADPH (5 mg/mL, 15 μL in 0.1 M potassium phosphate buffer, 1.0 mM EDTA, pH 7.4), the total volume is 45 μL (compound final concentration was 1 μM). […] 50 μL of the supernatant was transferred from each well into a 96-well sample plate containing 50 μL of ultra-pure water (Millipore) for LC-MS/MS analysis.

[3] = target: T2, Cyp21 enzyme (Human HEK 293-Cyp21 stable transfected cells) (Homo sapiens, UniProt P08686); assay: CYP21-HEK293 enzymatic assay (% inhibition at 100 nM) (Biological Example 10); type: cell-based; conditions: HEK 293-Cyp21 cells
T2 construct: expressed in transfected cells
T2 sequence (P08686 1-495): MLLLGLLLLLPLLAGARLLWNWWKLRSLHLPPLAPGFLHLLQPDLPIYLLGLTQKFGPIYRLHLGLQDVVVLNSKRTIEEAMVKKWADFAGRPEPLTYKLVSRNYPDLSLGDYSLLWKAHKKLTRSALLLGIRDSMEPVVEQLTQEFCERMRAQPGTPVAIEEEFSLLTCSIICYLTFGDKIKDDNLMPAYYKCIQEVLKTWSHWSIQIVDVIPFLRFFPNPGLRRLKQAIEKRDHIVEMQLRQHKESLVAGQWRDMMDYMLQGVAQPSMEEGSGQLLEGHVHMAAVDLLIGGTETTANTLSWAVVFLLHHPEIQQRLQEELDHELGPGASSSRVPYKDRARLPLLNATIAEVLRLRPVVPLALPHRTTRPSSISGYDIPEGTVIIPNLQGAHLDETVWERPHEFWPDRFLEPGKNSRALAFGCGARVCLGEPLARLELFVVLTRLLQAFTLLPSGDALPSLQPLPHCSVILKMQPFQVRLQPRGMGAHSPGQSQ
How it was run: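 HEK293 cells stably expressing human Cyp21 in DMEM + 10% FBS got compound (100 nM reported) for 5 h at 37 °C; 1% methanol served as mock. Progesterone substrate (final 10 μM) was then added for 20 h. DOC in the medium was measured by competitive ELISA (OD 450 nm) against a standard curve.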

[4] = target: T3, CYP17 (human testicular microsome) (Homo sapiens, UniProt P05093); assay: CYP17 enzymatic assay (% inhibition at 10 nM), version 1 (Biological Example 5); type: biochemical; conditions: 10 nM compound, DHEA by ELISA, read-out: Biological Example No. 5: CYP17 percent inhibition at 10 nM (version 1)
T3 construct: using microsomal fraction from human testis (Celsis Cat #S00110) as the enzyme source; tissue Celsis S00110; host or cells: human testis microsomal fraction
T3 sequence (P05093 1-508): T1 sequence (P05093 1-508)

[5] = target: T3, CYP17 (human testicular microsome); assay: CYP17 enzymatic assay (IC50) (Biological Example 4); type: biochemical; conditions: human testicular microsome, DHEA by ELISA; read-out: Biological Example No. 4: CYP17 enzymatic assay IC50
[6] = Human liver microsome stability assay (Biological Example 8b); conditions: liver microsomes, pH 7.4
Procedure: as §1

[7] = target: T3, CYP17 (human testicular microsome); assay: CYP17 enzymatic assay (% inhibition at 1 nM) (Biological Example 12); type: biochemical
Procedure: The assays were performed in 96-well plates. Typical assays were carried out in total 100 μL volume that included test compounds at 1 nM concentration, 1× reaction buffer, 0.5 mM NADPH, 1 μM 17α-hydroxypregnenolone, and 2.5 μL of human testicular microsome (Celsis. Cat #S00110). Reaction without test compound served as a positive control. Reactions were allowed to incubate at 37° C. for 90 min with gentle shaking. The reaction was stopped by directly applying the enzymatic reaction mixture to ELISA plate for evaluation of DHEA concentration according to manufacturer's protocol (IBL America). A standard curve (OD450 vs. DHEA concentration) was generated using purified DHEA. […] Percent inhibition (inhibition %) of the compound was calculated using normalized DHEA concentration based on following formula: 100−([DHEA] of compound/[DHEA] of positive control*100).

[8] = tested on: rat Cyp11B enzyme (rat adrenal mitochondria); assay: CYP11B enzymatic assay (% inhibition at 100 nM) (Biological Example 9); type: biochemical; conditions: compound at 100 nM
How it was run: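 Sprague Dawley rat adrenal mitochondria were incubated with compound at 100 nM, 0.5 mM NADPH and 0.1 μM 11-deoxycortisol (pH 7.4 Tris buffer) for 60 min at 37 °C. Cortisol was measured by ELISA and corrected by subtracting the no-NADPH background. % inhibition is relative to the no-compound reaction.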

[9] = compound at 1 nM, read-out: CYP17 enzymatic assay % inhibition at 1 nM (Biological Example No. 12)

Row | SMILES | Biological Example No. 6: CYP17 percent inhibition (version 2) [1] | half-life at 1 μM (in vitro) | inhibition at 0.001 µM [7, 9] | also measured
1 | C[C@]12CCC3C(CCN4C(=O)CC=CC[C@]34C)C1CC=C2c1cccnc1 (stereo partly drawn) [Compound 34, (11aR,13aS)-11a,13a-dimethyl-1-(pyridin-3-yl)-3b,4,5,8,11,11a,11b,12,13,13a-decahydro-3H-azepino[2,1-a]cyclopenta[f]isoquinolin-7(3aH)-one] | F (F means the compound had a percent inhibition of greater than or equal to 38%) |  |  | half-life at 1 μM [2]: 1 to 10 min
2 | C[C@]12CCC3C(CCN4C(=O)C=CCC[C@]34C)C1CC=C2c1cccnc1 (stereo partly drawn) [Compound 35, (11aR,13aS)-11a,13a-dimethyl-1-(pyridin-3-yl)-3b,4,5,10,11,11a,11b,12,13,13a-decahydro-3H-azepino[2,1-a]cyclopenta[f]isoquinolin-7(3aH)-one] | F (F means the compound had a percent inhibition of greater than or equal to 38%) |  |  | 
3 | COc1cncc(C2=CC=C3[C@@H]4CCC5=CC(=O)CC[C@]5(C)[C@H]4CC[C@]23C)c1 [Compound 83, (10R,13S)-17-(5-methoxypyridin-3-yl)-10,13-dimethyl-6,7,8,9,10,11,12,13-octahydro-1H-cyclopenta[a]phenanthren-3(2H)-one] |  | 1 to 50 min |  | inhibition at 0.1 µM ([3]; 100 nM compound, read-out: Biological Example No. 10: CYP21-HEK293 percent inhibition at 100 nM): ≥ 30%; inhibition at 0.01 µM [4]: 50 to 80%
4 | C[C@]12CCOC(=O)C[C@@H]1CC[C@@H]1[C@@H]2CC[C@]2(C)C(c3cccnc3)=CC[C@@H]12 [Compound 112, (1S,2S,8S,12S,16S,11R)-2,16-dimethyl-15-(3-pyridyl)-5-oxatetracyclo[9.7.0.0^2,8.0^12,16]octadec-14-en-6-one] | F (F means the compound had a percent inhibition of greater than or equal to 38%) |  |  | IC50 [5]: < 11 nM; half-life at 1 μM [6]: 1 to 50 min; half-life at 1 μM [2]: 10 to 60 min
5 | COc1cncc(C2=CC[C@H]3[C@@H]4CC[C@H]5COC(=O)CC[C@]5(C)[C@H]4CC[C@]23C)c1 [Compound 115, (1S,12S,16S,2R,8R,11R)-15-(5-methoxy(3-pyridyl))-2,16-dimethyl-6-oxatetracyclo[9.7.0.0^2,8.0^12,16]octadec-14-en-5-one] | F (F means the compound had a percent inhibition of greater than or equal to 38%) |  |  | 
6 | CCOc1cncc(C2=CC[C@H]3[C@@H]4CC[C@H]5COC(=O)CC[C@]5(C)[C@H]4CC[C@]23C)c1 [Compound 117, (1S,12S,16S,2R,8R,11R)-15-(5-ethoxy(3-pyridyl))-2,16-dimethyl-6-oxatetracyclo[9.7.0.0^2,8.0^12,16]octadec-14-en-5-one] | G (G means the compound had a percent inhibition of less than 38% but greater than or equal to 3%) |  |  | 
7 | CC(=O)N[C@@H]1CC[C@@]2(C)C(=CC[C@@H]3[C@@H]2CC[C@]2(C)C(c4cncc(C(F)(F)F)c4)=CC[C@@H]32)C1 [Compound 231, N-((3R,10R,13S)-10,13-dimethyl-17-(5-(trifluoromethyl)pyridin-3-yl)-2,3,4,7,8,9,10,11,12,13,14,15-dodecahydro-1H-cyclopenta[a]phenanthren-3-yl)acetamide] |  | 1 to 50 min | 10 to 50% | 
8 | CCNC(=O)N[C@@H]1CC[C@@]2(C)C(=CC[C@@H]3[C@@H]2CC[C@]2(C)C(c4cccnc4)=CC[C@@H]32)C1 [Compound 232, 1-((3R,10R,13S)-10,13-dimethyl-17-(pyridin-3-yl)-2,3,4,7,8,9,10,11,12,13,14,15-dodecahydro-1H-cyclopenta[a]phenanthren-3-yl)-3-ethylurea] |  | 1 to 50 min | > 50% | 
9 | CCNC(=O)NC1CC[C@@]2(C)C(=CCC3C2CC[C@]2(C)C(n4ccnc4)=CCC32)C1 (stereo partly drawn) [Compound 242, 1-((10R,13S)-17-(1H-imidazol-1-yl)-10,13-dimethyl-2,3,4,7,8,9,10,11,12,13,14,15-dodecahydro-1H-cyclopenta[a]phenanthren-3-yl)-3-ethylurea] |  | 1 to 50 min | > 50% | inhibition at 0.1 µM ([3]; compound at 100 nM, read-out: CYP21-HEK293 enzymatic assay % inhibition at 100 nM (Biological Example No. 10)): < 30%; CYP11B enzymatic assay % inhibition at 100 nM (Biological Example No. 9) [8]: U (U means the compound had a percent inhibition of greater than or equal to 32%)
10 | CC(=O)N[C@@H]1CC[C@@]2(C)C(CC[C@H]3C4=CC=C(c5cccnc5)[C@@]4(C)CC[C@@H]32)C1 (stereo partly drawn) [Compound 244, N-((3R,10S,13S)-10,13-dimethyl-17-(pyridin-3-yl)-2,3,4,5,6,7,8,9,10,11,12,13-dodecahydro-1H-cyclopenta[a]phenanthren-3-yl)acetamide] |  | 1 to 50 min | > 50% | 
11 | C[C@@]1(O)CC[C@@]2(C)C(=CCC3C2CC[C@]2(C)C(c4cncc(F)c4)=CCC32)C1 (stereo partly drawn) [Compound 269, (3R,10R,13S)-17-(5-fluoropyridin-3-yl)-3,10,13-trimethyl-2,3,4,7,8,9,10,11,12,13,14,15-dodecahydro-1H-cyclopenta[a]phenanthren-3-ol] |  | > 50 min |  | inhibition at 0.001 µM ([7]; test compound at 1 nM, read-out: CYP17 enzymatic assay percent inhibition at 1 nM (Biological Example No. 12)): > 50%
